Test results from ChEMBL document CHEMBL3769371, “1-[(2E)-3-Phenylprop-2-enoyl]-1H-benzimidazoles as anticancer agents: synthesis, crystal structure analysis and binding studies of the most potent anticancer molecule with serum albumin” (Medchemcomm, 2015).

Tests used:
[1] = test system: CCRF-CEM; experiment: Cytotoxicity against human CCRF-CEM cells assessed as cell growth at 10^-5 M after 48 hrs by SRB assay; assay type: functional; settings: read-out: Activity
[2] = test system: K562; experiment: Cytotoxicity against human K562 cells assessed as cell growth at 10^-5 M after 48 hrs by SRB assay; assay type: functional; settings: K562, 48 h, read-out: Activity
[3] = Cytotoxicity against human RPMI8226 cells assessed as cell growth at 10^-5 M after 48 hrs by SRB assay; assay type: functional; settings: RPMI-8226, 48 h, read-out: Activity
[4] = Cytotoxicity against human HCC2998 cells assessed as cell growth at 10^-5 M after 48 hrs by SRB assay; assay type: functional; settings: HCC 2998, 48 h, read-out: Activity
[5] = Cytotoxicity against human HCT116 cells assessed as cell growth at 10^-5 M after 48 hrs by SRB assay; assay type: functional; settings: HCT-116, 48 h, read-out: Activity
[6] = Cytotoxicity against human SF268 cells assessed as cell growth at 10^-5 M after 48 hrs by SRB assay; assay type: functional; settings: SF-268, 48 h, read-out: Activity
[7] = Cytotoxicity against human SNB75 cells assessed as cell growth at 10^-5 M after 48 hrs by SRB assay; assay type: functional; settings: SNB-75, 48 h, read-out: Activity
[8] = test system: Malme-3M; experiment: Cytotoxicity against human MALME-3M cells assessed as cell growth at 10^-5 M after 48 hrs by SRB assay; assay type: functional; settings: read-out: Activity
[9] = Cytotoxicity against human UACC257 cells assessed as cell growth at 10^-5 M after 48 hrs by SRB assay; assay type: functional; settings: UACC-257, 48 h, read-out: Activity
[10] = Cytotoxicity against human OVCAR5 cells assessed as cell growth at 10^-5 M after 48 hrs by SRB assay; assay type: functional; settings: OVCAR-5, 48 h, read-out: Activity
[11] = Cytotoxicity against human NCI-ADR-RES cells assessed as cell growth at 10^-5 M after 48 hrs by SRB assay; assay type: functional; settings: read-out: Activity
[12] = Cytotoxicity against human SKOV3 cells assessed as cell growth at 10^-5 M after 48 hrs by SRB assay; assay type: functional; settings: SK-OV-3, 48 h, read-out: Activity
[13] = Cytotoxicity against human PC3 cells assessed as cell growth at 10^-5 M after 48 hrs by SRB assay; assay type: functional; settings: PC-3, 48 h, read-out: Activity
[14] = test system: MCF7; experiment: Cytotoxicity against human MCF7 cells assessed as cell growth at 10^-5 M after 48 hrs by SRB assay; assay type: functional; settings: MCF7, 48 h, read-out: Activity
[15] = Cytotoxicity against human Hs 578T cells assessed as cell growth at 10^-5 M after 48 hrs by SRB assay; assay type: functional; settings: read-out: Activity
[16] = test system: K562; experiment: Cytotoxicity against human K562 cells after 48 hrs by SRB assay; assay type: functional; settings: K562, 48 h
[17] = test system: NCI-H23; experiment: Cytotoxicity against human NCI-H23 cells after 48 hrs by SRB assay; assay type: functional; settings: NCI-H23, 48 h
[18] = test system: NCI-H322M; experiment: Cytotoxicity against human NCI-H322M cells after 48 hrs by SRB assay; assay type: functional
[19] = Cytotoxicity against human COLO205 cells after 48 hrs by SRB assay; assay type: functional; settings: COLO 205, 48 h
[20] = Cytotoxicity against human HCT15 cells after 48 hrs by SRB assay; assay type: functional; settings: HCT-15, 48 h
[21] = test system: KM12; experiment: Cytotoxicity against human KM12 cells after 48 hrs by SRB assay; assay type: functional; settings: KM12, 48 h
[22] = test system: U-251; experiment: Cytotoxicity against human U251 cells after 48 hrs by SRB assay; assay type: functional; settings: U-251, 48 h
[23] = test system: MDA-MB-435; experiment: Cytotoxicity against human MDA-MB-435 cells after 48 hrs by SRB assay; assay type: functional; settings: MDA-MB-435, 48 h
[24] = Cytotoxicity against human OVCAR8 cells after 48 hrs by SRB assay; assay type: functional; settings: OVCAR-8, 48 h
[25] = test system: 786-0; experiment: Cytotoxicity against human 786-0 cells after 48 hrs by SRB assay; assay type: functional; settings: 786-0, 48 h
[26] = test system: A498; experiment: Cytotoxicity against human A498 cells after 48 hrs by SRB assay; assay type: functional; settings: A498, 48 h
[27] = test system: ACHN; experiment: Cytotoxicity against human ACHN cells after 48 hrs by SRB assay; assay type: functional
[28] = test system: SN12C; experiment: Cytotoxicity against human SN12C cells after 48 hrs by SRB assay; assay type: functional
[29] = Cytotoxicity against human TK10 cells after 48 hrs by SRB assay; assay type: functional; settings: TK-10, 48 h
[30] = Cytotoxicity against human UO31 cells after 48 hrs by SRB assay; assay type: functional; settings: UO-31, 48 h
[31] = Cytotoxicity against human PC3 cells after 48 hrs by SRB assay; assay type: functional; settings: PC-3, 48 h
[32] = Cytotoxicity against human BT549 cells after 48 hrs by SRB assay; assay type: functional; settings: BT-549, 48 h
[33] = test system: T47D; experiment: Cytotoxicity against human T47D cells after 48 hrs by SRB assay; assay type: functional
[34] = target: T1, Albumin (Homo sapiens, UniProt P02768); experiment: Binding affinity to human serum albumin at 0.25 to 2 uM at 303 K by fluorescence microscopic analysis in the presence of digitoxin; assay type: ADME; settings: isolated protein
T1 sequence (P02768 whole entry): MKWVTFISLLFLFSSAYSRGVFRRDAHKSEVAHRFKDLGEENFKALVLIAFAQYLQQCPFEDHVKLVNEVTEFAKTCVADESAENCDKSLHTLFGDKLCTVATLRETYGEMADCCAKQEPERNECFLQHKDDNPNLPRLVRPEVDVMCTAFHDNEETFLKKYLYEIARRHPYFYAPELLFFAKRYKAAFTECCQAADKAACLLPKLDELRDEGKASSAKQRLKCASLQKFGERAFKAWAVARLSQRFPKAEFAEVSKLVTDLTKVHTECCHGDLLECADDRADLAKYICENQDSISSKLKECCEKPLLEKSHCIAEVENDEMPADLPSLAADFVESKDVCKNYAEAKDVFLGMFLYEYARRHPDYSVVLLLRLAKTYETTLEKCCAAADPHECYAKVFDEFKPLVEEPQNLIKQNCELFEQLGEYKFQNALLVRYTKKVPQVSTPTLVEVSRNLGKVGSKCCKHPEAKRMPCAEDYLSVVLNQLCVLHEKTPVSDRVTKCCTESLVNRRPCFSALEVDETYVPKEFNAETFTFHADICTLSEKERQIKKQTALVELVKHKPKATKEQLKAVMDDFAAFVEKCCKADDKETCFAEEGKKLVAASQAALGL

[35] = target: T1, Albumin; experiment: Binding affinity to human serum albumin assessed Stern-Volmer quenching constant at 0.25 to 2 uM at 298 K by fluorescence microscopic analysis; assay type: ADME; settings: isolated protein
[36] = target: T1, Albumin; experiment: Binding affinity to human serum albumin at 0.25 to 2 uM at 298 K by fluorescence microscopic analysis; assay type: ADME; settings: isolated protein
[37] = target: T1, Albumin; experiment: Binding affinity to human serum albumin at 0.25 uM at 303 K by fluorescence microscopic analysis in the presence of Mn2+; assay type: ADME; settings: isolated protein
[38] = Antiproliferative activity against human SKOV3 cells at 10'5 M; assay type: functional, SK-OV-3
[39] = Antiproliferative activity against human PC3 cells at 10'5 M; assay type: functional, PC-3
[40] = read-out: LC50 (the source's name)

Compound `O=C(/C=C/c1ccccc1)n1c(-c2ccc(Cl)cc2)nc2ccccc21` has a growth at 10 µM [1] of -23.9%, a growth at 10 µM [2] of 39.8% and a growth at 10 µM [3] of -31.1%. It also gave a growth at 10 µM [4] of 5.08%, a growth at 10 µM [5] of -71.5% and a growth at 10 µM [6] of -11.8%. The growth at 10 µM [7] was 18.1%, the growth at 10 µM [8] was 15.9% and the growth at 10 µM [9] was -64.4%. It also gave a growth at 10 µM [10] of -48.1%, a growth at 10 µM [11] of 10.8% and a growth at 10 µM [12] of 23.9%. For the same compound, the growth at 10 µM [13] was 6.09%, the growth at 10 µM [14] was 10.3% and the growth at 10 µM [15] was 20%. The GI50 [16] was 2.09 µM, the TGI [16] was 11.8 µM and the CC50 [16, 40] was over 100 µM. It also gave a GI50 [17] of 2.17 µM, a TGI [17] of 6 µM and a CC50 [17, 40] of over 100 µM. It also gave a GI50 [18] of 1.91 µM, a TGI [18] of 4.89 µM and a CC50 [18, 40] of 20 µM. It also gave a GI50 [19] of 1.23 µM, a TGI [19] of 2.64 µM and a CC50 [19, 40] of 5.65 µM. For the same compound, the GI50 [20] was 1.21 µM, the TGI [20] was 2.88 µM and the CC50 [20, 40] was 6.9 µM. It also gave a GI50 [21] of 1.51 µM, a TGI [21] of 3.71 µM and a CC50 [21, 40] of 9.16 µM. It also gave a GI50 [22] of 1.44 µM, a TGI [22] of 3.77 µM and a CC50 [22, 40] of 9.91 µM. It also gave a GI50 [23] of 1.9 µM, a TGI [23] of 5.05 µM and a CC50 [23, 40] of 19.6 µM. For the same compound, the GI50 [24] was 1.74 µM, the TGI [24] was 4.21 µM and the CC50 [24, 40] was 10.5 µM. The GI50 [25] was 2.43 µM, the TGI [25] was 5.71 µM and the CC50 [25, 40] was 18 µM. The GI50 [26] was 2.05 µM, the TGI [26] was 7.63 µM and the CC50 [26, 40] was 28.4 µM. The GI50 [27] was 1.17 µM, the TGI [27] was 2.56 µM and the CC50 [27, 40] was 5.62 µM. For the same compound, the GI50 [28] was 1.39 µM, the TGI [28] was 2.76 µM and the CC50 [28, 40] was 5.46 µM. For the same compound, the GI50 [29] was 2.35 µM, the TGI [29] was 7.93 µM and the CC50 [29, 40] was 28 µM. The GI50 [30] was 1.1 µM, the TGI [30] was 3.55 µM and the CC50 [30, 40] was 12.9 µM. For the same compound, the GI50 [31] was 1.91 µM, the TGI [31] was 6.73 µM and the CC50 [31, 40] was 36.3 µM. It also gave a GI50 [32] of 1.67 µM, a TGI [32] of 3.22 µM and a CC50 [32, 40] of 6.18 µM. It also gave a GI50 [33] of 1.73 µM, a TGI [33] of 7.68 µM and a CC50 [33, 40] of 57.5 µM. For the same compound, the K [34] was 5.73 ×10³ /M, the KSV [35] was 1.37 ×10⁵ L/mol and the K [36] was 3.2 ×10⁴ /mol. The K [37] was 3.85 ×10³ /mol, the “growth inhibition (GI)” value [38] was 76.05% and the “growth inhibition (GI)” value [39] was 93.91%.
